Source: US20240384268A1, “Oligonucleotides” (Hudson Institute of Medical Research, priority 2021, published 2024)
In the oligonucleotide strings, read from the 5' end, every base follows the letter of its sugar. An asterisk marks phosphorothioate; unmarked linkages are phosphodiester. Other units and linkages are bracketed, terminal groups are in braces. A string of capitals states the bases alone. m = 2'-O-methyl

Target: T1, TLR8 (Homo sapiens, UniProt Q9NR97)
T1 sequence (Q9NR97 27-1041): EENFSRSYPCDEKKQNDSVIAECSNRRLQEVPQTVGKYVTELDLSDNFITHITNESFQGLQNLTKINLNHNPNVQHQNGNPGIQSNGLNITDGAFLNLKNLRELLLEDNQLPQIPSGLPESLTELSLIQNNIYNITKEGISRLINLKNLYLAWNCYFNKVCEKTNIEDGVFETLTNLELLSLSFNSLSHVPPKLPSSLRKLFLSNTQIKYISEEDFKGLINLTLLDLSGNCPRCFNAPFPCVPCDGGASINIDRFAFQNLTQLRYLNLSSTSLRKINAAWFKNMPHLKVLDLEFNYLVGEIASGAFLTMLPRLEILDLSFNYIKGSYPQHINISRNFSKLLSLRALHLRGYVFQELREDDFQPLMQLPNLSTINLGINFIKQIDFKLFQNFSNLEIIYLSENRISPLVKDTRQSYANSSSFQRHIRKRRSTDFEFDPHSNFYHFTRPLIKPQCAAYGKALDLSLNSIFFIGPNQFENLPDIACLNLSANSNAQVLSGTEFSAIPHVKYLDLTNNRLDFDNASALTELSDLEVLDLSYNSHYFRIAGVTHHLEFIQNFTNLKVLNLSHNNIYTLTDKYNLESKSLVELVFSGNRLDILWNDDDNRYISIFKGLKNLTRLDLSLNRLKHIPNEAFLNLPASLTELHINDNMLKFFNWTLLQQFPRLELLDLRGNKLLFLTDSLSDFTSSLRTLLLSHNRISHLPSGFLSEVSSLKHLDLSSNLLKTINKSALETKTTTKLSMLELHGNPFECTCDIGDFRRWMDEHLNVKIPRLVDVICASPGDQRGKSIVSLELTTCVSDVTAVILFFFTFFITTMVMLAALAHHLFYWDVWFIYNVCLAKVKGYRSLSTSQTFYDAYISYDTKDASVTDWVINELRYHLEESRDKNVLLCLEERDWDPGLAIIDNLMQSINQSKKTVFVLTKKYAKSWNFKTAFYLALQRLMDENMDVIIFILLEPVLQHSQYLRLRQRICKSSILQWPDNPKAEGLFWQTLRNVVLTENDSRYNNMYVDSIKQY
Experiment: R848-driven IP-10 production in THP-1 cells (TLR8)
Assay type: cell-based
Design: expressed in transfected cells; dose or concentration left out as unconfirmed
Settings: R848 7 h; for TLR8 potentiation in THP-1, short 2′OMe oligos (IP-10; in words): oligos overnight; for effect of 3-mer 2′OMe oligos on R848-driven IP-10 in THP-1 (in words): 3-mer oligos overnight
Experimental: FIG. 34: THP-1 cells were pre-treated overnight with […] ASOs, prior to R848 stimulation for 7h. […] All ASO conditions are with R848 co-stimulation.
FIG. 35: THP-1 cells were pre-treated overnight with indicated concentrations of ASOs, prior to R848 stimulation for 7h. […] All ASO conditions are with R848 co-stimulation. SEM and two-way ANOVA with Tukey's multiple comparisons to 660-3b condition are shown.
FIG. 36: A, B, C) HEK-TLR8 cells expressing an NF-κB-luciferase reporter were pre-treated 40 min with […] oligos, prior to Motolimod stimulation (400 nM [B] or 600 nM [A and C] overnight). Data shown are averaged from 2 (B) independent or a single experiment (A and C), completed with 3 biological triplicate. The NF-κB-luciferase values are reported to the Motolimod condition. D) THP-1 cells were pre-treated overnight with […] 3-mer oligos, prior to R848 stimulation ([…]) for 7h. IP-10 levels were measured by ELISA. Data shown are averaged from a single experiment completed with 3 biological triplicate, reported to the R848 only condition. A-E) All oligo conditions are with Motolimod or R848 co-stimulation.
Human IP-10 and IFN-β levels were measured using supernatants from the different cultures and were quantified using IP-10 (BD Biosciences, #550926) or IFN-β (PBL assay science, #41415-1) ELISA kits respectively, according to the manufacturers' protocol. Tetramethylbenzidine substrate (Thermo Fisher Scientific) was used for quantification of the cytokines on a Fluostar OPTIMA (BMG LABTECH) plate-reader.

## mCmUmU (antisense mC*mU*mU) [660-3]
  TLR8 potentiation in THP-1, short 2′OMe oligos (IP-10; in words): did not work
Listed as CUU
  TLR8 potentiation in THP-1, short 2′OMe oligos (IP-10; in words): did not potentiate TLR8

## mGmAmU (mG*mA*mU) [GAU, 3-mer 2′OMe PS oligo]
  effect of 3-mer 2′OMe oligos on R848-driven IP-10 in THP-1 (in words): robustly the most potent

## mGmUmA (GUA; all 2'-O-methyl, backbone not given here; further chemistry not fully specified) [shortMut1-3b]
  effect of 3-mer 2′OMe oligos on R848-driven IP-10 in THP-1 (in words): robustly inhibitory

## mGmUmC (mG*mU*mC) [GUC, 3-mer 2′OMe PS oligo]
  effect of 3-mer 2′OMe oligos on R848-driven IP-10 in THP-1 (in words): robustly inhibitory

## mGmUmG (mG*mU*mG) [GUG, 3-mer 2′OMe PS oligo]
  effect of 3-mer 2′OMe oligos on R848-driven IP-10 in THP-1 (in words): robustly inhibitory

## mGmUmU (mG*mU*mU) [GUU, 3-mer 2′OMe PS oligo]
  effect of 3-mer 2′OMe oligos on R848-driven IP-10 in THP-1 (in words): robustly inhibitory

## mUmCmG (antisense mU*mC*mG) [660-3b]
  TLR8 potentiation in THP-1, short 2′OMe oligos (IP-10; in words): significantly potentiated TLR8 sensing
